Results published in the kinase profiling compilation of Christmann-Franck et al. (2016).
Blank lines part the entries; values can stand above or below the compound they belong to.

Columns and labels:
Assay in all cases: radiometric filter-binding kinase assay, Kinase HotSpot
Conditions in all cases: compound 0.5 µM; ATP 10 µM
[1] = biological target: TXK (human) (UniProt P42681)
[2] = biological target: PNCK (human) (UniProt Q6P2M8)
[3] = biological target: HIPK2 (human) (UniProt Q9H2X6)
[4] = biological target: MAP3K9 (human) (UniProt P80192)
[5] = biological target: MAPK9 (human) (UniProt P45984)
[6] = biological target: MAP4K2 (human) (UniProt Q12851)
[7] = biological target: CSNK1G2 (human) (UniProt P78368)
[8] = biological target: FLT1 (human) (UniProt P17948)
[9] = biological target: EPHB4 (human) (UniProt P54760)
[10] = biological target: AKT1 (human) (UniProt P31749)
[11] = biological target: PDGFRB (human) (UniProt P09619)
[12] = biological target: FRK (human) (UniProt P42685)
[13] = biological target: CHEK1 (human) (UniProt O14757)
[14] = biological target: MLTK (human) (UniProt Q9NYL2)
[15] = biological target: PIM1 (human) (UniProt P11309)
[16] = biological target: TGFBR2 (human) (UniProt P37173)
[17] = biological target: PLK1 (human) (UniProt P53350)
[18] = biological target: HIPK1 (human) (UniProt Q86Z02)
[19] = biological target: IKBKE (human) (UniProt Q14164)
[20] = biological target: SYK (human) (UniProt P43405)
[21] = biological target: TSSK2 (human) (UniProt Q96PF2)
[22] = biological target: MAP3K5 (human) (UniProt Q99683)
[23] = biological target: MAPK3 (human) (UniProt P27361)
[24] = biological target: EPHA7 (human) (UniProt Q15375)
[25] = biological target: ULK2 (human) (UniProt Q8IYT8)
[26] = biological target: MAPK8 (human) (UniProt P45983)
[27] = biological target: RPS6KA2 KD1 KD2 (human) (UniProt Q15349)
[28] = biological target: FES (human) (UniProt P07332)
[29] = biological target: PAK7 (human) (UniProt Q9P286)
[30] = biological target: EPHB3 (human) (UniProt P54753)
[31] = biological target: MINK1 (human) (UniProt Q8N4C8)
[32] = biological target: MAP3K10 (human) (UniProt Q02779)
[33] = biological target: MAPK1 (human) (UniProt P28482)
[34] = biological target: PAK6 (human) (UniProt Q9NQU5)
[35] = biological target: PRKCI (human) (UniProt P41743)
[36] = biological target: PBK (human) (UniProt Q96KB5)
[37] = biological target: PRKCA (human) (UniProt P17252)
[38] = biological target: AKT2 (human) (UniProt P31751)
[39] = biological target: PIM2 (human) (UniProt Q9P1W9)
[40] = biological target: RET (human) (UniProt P07949)
[41] = biological target: EPHA3 (human) (UniProt P29320)
[42] = biological target: FGFR3 (human) (UniProt P22607)

Chain of MAPK9 (human) (P45984 whole entry, looked up): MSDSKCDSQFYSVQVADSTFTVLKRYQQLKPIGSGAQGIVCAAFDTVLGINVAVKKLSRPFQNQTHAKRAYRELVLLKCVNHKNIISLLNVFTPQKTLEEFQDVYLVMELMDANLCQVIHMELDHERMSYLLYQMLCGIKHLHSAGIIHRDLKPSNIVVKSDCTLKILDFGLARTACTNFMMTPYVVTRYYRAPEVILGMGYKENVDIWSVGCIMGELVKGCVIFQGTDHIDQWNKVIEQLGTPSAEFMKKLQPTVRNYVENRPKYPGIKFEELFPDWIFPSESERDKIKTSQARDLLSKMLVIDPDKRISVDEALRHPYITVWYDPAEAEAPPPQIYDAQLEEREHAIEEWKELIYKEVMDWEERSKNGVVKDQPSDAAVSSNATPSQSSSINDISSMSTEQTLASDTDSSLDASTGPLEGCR
Chain of EPHB3 (human) (P54753 whole entry, looked up): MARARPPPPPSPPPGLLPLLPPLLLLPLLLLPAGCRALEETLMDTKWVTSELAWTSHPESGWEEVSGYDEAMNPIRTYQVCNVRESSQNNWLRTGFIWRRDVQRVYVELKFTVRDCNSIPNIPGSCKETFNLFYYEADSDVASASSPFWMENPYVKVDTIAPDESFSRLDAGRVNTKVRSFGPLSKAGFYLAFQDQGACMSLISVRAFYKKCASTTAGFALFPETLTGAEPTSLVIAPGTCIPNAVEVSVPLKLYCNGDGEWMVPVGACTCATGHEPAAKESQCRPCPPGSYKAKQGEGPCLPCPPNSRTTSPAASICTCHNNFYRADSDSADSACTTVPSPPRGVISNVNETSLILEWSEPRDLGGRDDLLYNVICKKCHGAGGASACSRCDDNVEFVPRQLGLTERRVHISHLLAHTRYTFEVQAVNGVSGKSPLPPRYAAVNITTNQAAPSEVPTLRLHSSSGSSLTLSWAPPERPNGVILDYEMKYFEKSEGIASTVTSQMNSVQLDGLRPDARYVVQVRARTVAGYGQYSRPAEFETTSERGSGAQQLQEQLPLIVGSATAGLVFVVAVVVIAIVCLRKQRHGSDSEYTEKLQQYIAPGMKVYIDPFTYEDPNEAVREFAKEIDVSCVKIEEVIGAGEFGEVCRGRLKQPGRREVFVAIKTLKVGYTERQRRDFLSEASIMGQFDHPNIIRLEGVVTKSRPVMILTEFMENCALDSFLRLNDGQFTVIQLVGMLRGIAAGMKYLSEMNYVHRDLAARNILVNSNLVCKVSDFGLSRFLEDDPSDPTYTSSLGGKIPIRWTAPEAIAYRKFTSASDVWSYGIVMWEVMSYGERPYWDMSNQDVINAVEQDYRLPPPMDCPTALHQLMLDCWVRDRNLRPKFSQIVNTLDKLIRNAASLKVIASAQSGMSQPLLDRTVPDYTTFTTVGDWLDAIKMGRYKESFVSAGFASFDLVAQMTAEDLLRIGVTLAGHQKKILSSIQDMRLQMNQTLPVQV
Chain of MAPK8 (human) (P45983 whole entry, looked up): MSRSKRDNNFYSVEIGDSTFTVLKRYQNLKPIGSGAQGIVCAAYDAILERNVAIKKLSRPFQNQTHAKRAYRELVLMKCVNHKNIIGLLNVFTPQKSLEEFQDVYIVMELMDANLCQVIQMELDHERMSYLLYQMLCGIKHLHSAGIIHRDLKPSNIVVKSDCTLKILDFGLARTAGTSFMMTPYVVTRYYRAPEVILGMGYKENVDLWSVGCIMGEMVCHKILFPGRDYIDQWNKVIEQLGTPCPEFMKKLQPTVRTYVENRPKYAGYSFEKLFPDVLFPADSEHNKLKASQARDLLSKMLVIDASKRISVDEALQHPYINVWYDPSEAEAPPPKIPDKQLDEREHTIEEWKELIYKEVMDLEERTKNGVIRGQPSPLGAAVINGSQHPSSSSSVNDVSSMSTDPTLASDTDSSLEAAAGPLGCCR
Chain of FRK (human) (P42685 whole entry, looked up): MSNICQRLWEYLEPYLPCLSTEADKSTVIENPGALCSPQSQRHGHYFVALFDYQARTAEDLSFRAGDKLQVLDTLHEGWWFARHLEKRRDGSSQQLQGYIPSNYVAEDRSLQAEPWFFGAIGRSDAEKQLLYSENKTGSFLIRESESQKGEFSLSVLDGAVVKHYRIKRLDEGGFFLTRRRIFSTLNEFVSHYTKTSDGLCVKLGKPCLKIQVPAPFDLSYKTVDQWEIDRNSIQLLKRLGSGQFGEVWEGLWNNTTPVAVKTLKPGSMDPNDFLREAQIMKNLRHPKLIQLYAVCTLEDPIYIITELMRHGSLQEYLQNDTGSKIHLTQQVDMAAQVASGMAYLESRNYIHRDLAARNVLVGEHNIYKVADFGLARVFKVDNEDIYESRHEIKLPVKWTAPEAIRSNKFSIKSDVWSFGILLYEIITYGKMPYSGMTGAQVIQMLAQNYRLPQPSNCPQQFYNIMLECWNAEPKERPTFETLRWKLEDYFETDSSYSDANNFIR
Chain of MAP4K2 (human) (Q12851 whole entry, looked up): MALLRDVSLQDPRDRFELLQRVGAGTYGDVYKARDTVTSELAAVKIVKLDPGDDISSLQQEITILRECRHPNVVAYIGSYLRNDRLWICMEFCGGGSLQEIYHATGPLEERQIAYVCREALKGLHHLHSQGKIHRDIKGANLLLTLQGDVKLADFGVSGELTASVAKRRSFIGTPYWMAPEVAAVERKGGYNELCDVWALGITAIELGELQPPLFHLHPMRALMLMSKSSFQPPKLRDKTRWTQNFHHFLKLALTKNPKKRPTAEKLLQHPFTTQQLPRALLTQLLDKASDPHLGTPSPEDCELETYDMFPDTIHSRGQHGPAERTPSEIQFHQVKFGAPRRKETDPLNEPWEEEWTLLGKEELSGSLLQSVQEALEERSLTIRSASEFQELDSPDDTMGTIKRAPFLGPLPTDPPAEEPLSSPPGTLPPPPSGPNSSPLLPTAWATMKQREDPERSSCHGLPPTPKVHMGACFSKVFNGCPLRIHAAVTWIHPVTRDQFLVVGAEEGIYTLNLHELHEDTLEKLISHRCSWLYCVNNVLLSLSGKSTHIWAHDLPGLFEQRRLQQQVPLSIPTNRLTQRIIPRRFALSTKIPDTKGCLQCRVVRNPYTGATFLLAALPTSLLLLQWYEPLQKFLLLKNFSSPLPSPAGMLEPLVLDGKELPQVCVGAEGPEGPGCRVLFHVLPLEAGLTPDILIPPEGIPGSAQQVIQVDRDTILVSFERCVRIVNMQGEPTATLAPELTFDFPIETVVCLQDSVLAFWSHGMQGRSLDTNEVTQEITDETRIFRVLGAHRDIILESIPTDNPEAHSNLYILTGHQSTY
Chain of PAK7 (human) (Q9P286 whole entry, looked up): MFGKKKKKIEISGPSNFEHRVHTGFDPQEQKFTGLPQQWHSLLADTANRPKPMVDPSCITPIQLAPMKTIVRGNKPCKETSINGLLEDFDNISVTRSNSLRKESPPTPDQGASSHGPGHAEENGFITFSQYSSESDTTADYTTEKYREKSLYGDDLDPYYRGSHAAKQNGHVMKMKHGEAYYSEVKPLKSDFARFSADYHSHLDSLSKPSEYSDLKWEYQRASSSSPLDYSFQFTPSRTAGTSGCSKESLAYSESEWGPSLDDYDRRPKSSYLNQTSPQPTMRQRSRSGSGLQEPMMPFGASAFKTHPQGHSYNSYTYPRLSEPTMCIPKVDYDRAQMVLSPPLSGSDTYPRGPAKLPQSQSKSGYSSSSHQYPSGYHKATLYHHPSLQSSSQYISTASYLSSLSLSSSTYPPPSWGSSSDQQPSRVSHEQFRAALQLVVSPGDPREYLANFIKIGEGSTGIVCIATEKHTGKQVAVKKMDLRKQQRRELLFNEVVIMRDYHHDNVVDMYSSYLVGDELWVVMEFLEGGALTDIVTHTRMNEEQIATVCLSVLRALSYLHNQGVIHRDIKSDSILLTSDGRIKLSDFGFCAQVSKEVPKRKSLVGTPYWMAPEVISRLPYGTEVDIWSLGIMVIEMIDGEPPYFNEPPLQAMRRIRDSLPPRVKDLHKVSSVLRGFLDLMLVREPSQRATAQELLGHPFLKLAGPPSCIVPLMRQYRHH
Chain of TXK (human) (P42681 whole entry, looked up): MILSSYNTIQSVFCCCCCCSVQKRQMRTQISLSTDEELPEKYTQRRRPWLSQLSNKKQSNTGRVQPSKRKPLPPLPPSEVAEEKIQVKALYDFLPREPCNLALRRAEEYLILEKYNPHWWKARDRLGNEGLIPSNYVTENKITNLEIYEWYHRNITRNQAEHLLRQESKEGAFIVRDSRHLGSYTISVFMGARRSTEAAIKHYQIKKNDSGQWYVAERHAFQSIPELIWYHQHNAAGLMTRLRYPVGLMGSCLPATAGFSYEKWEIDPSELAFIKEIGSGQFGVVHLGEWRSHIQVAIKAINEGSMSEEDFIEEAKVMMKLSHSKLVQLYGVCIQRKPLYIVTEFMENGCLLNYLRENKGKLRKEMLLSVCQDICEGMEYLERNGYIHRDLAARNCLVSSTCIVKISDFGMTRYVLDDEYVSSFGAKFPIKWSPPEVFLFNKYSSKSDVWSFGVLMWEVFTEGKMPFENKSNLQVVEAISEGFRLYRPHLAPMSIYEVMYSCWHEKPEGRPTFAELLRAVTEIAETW
Chain of TSSK2 (human) (Q96PF2 whole entry, looked up): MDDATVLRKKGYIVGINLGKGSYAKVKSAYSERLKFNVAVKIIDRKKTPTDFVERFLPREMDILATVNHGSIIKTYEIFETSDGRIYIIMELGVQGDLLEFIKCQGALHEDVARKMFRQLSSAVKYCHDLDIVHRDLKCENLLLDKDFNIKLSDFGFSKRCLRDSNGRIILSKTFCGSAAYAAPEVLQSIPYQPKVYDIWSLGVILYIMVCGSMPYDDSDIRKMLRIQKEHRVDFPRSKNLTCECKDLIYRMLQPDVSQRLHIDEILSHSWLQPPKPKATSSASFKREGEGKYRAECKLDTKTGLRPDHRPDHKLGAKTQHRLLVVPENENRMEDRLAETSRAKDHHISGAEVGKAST

residual activity [1]: 71.7%
residual activity [2]: 92.9%
residual activity [3]: 106%
residual activity [4]: 0.446%
residual activity [5]: 82.7%
residual activity [6]: 5.17%
residual activity [7]: 98.3%
residual activity [8]: 37%
residual activity [9]: 110%
residual activity [10]: 81.3%
residual activity [11]: 14.8%
residual activity [12]: 65.8%
residual activity [13]: 53%
residual activity [14]: 94.2%
residual activity [15]: 41.2%
residual activity [16]: 99.1%
residual activity [17]: 95.4%
residual activity [18]: 101%
residual activity [19]: 9.85%
residual activity [20]: 16.8%
residual activity [21]: 89.1%
residual activity [22]: 101%
residual activity [23]: 88.4%
residual activity [24]: 87.2%
residual activity [25]: 95.7%
residual activity [26]: 88.3%
residual activity [27]: 3.06%
residual activity [28]: 48.3%
residual activity [29]: 90.4%
residual activity [30]: 90.5%
residual activity [31]: 29.2%
residual activity [32]: 3.15%
residual activity [33]: 88.8%
residual activity [34]: 96.4%
residual activity [35]: 96.4%
Compound: CO[C@@H]1[C@H](N(C)C(=O)c2ccccc2)C[C@H]2O[C@]1(C)n1c3ccccc3c3c4c(c5c6ccccc6n2c5c31)C(=O)NC4

Compound: COc1cc(Nc2c(C#N)cnc3cc(OCCCN4CCN(C)CC4)c(OC)cc23)c(Cl)cc1Cl
residual activity [1]: 27.5%
residual activity [2]: 109%
residual activity [3]: 89%
residual activity [4]: 16.5%
residual activity [36]: 104%
residual activity [6]: 3.16%
residual activity [7]: 98.3%
residual activity [8]: 44.5%
residual activity [9]: 12.5%
residual activity [10]: 94.4%
residual activity [11]: 74.8%
residual activity [12]: 29.2%
residual activity [13]: 38.9%
residual activity [37]: 49.5%
residual activity [38]: 104%
residual activity [15]: 99.2%
residual activity [16]: 95.7%
residual activity [17]: 93.8%
residual activity [18]: 96.3%
residual activity [19]: 75.4%
residual activity [20]: 21.1%
residual activity [21]: 83.9%
residual activity [39]: 111%
residual activity [22]: 95.7%
residual activity [23]: 98.9%
residual activity [24]: 77.2%
residual activity [40]: 18.9%
residual activity [25]: 92.2%
residual activity [26]: 105%
residual activity [27]: 44.2%
residual activity [29]: 83.6%
residual activity [30]: 49.4%
residual activity [41]: 31.7%
residual activity [31]: 1.21%
residual activity [32]: 22.9%
residual activity [33]: 93.7%
residual activity [34]: 105%
residual activity [42]: 82.6%
residual activity [35]: 99.4%

Compound: COc1ccc2c(c1)/C(=C/c1cnc[nH]1)C(O)=N2
residual activity [1]: 93.5%
residual activity [2]: 86.3%
residual activity [3]: 100%
residual activity [4]: 58%
residual activity [36]: 124%
residual activity [5]: 101%
residual activity [6]: 42.6%
residual activity [7]: 95.3%
residual activity [8]: 73.9%
residual activity [9]: 91.1%
residual activity [10]: 100%
residual activity [12]: 96.4%
residual activity [13]: 76%
residual activity [37]: 91.3%
residual activity [38]: 106%
residual activity [14]: 91.4%
residual activity [15]: 90.8%
residual activity [16]: 107%
residual activity [17]: 103%
residual activity [18]: 98.9%
residual activity [19]: 92.5%
residual activity [20]: 93.9%
residual activity [21]: 97.3%
residual activity [39]: 97.2%
residual activity [22]: 103%
residual activity [23]: 87.2%
residual activity [24]: 90.4%
residual activity [25]: 97.7%
residual activity [26]: 95.9%
residual activity [27]: 44.3%
residual activity [28]: 97%
residual activity [29]: 96.9%
residual activity [30]: 98.8%
residual activity [41]: 93.3%
residual activity [31]: 57.9%
residual activity [32]: 92.9%
residual activity [33]: 93.1%
residual activity [34]: 101%
residual activity [42]: 65%
residual activity [35]: 96.9%

Compound: N#C/C(=C\c1ccc(O)c(O)c1)C(=O)NCc1ccccc1
residual activity [1]: 104%
residual activity [2]: 97.1%
residual activity [3]: 101%
residual activity [4]: 95.5%
residual activity [36]: 84.2%
residual activity [5]: 103%
residual activity [6]: 103%
residual activity [7]: 106%
residual activity [8]: 88%
residual activity [9]: 88.2%
residual activity [10]: 101%
residual activity [11]: 100%
residual activity [12]: 97.4%
residual activity [13]: 89.2%
residual activity [37]: 99.1%
residual activity [38]: 98.4%
residual activity [15]: 108%
residual activity [16]: 111%
residual activity [17]: 97.3%
residual activity [18]: 101%
residual activity [19]: 105%
residual activity [20]: 116%
residual activity [21]: 90%
residual activity [39]: 97.1%
residual activity [22]: 104%
residual activity [23]: 106%
residual activity [24]: 89.7%
residual activity [40]: 108%
residual activity [25]: 106%
residual activity [26]: 99.1%
residual activity [27]: 94.2%
residual activity [28]: 101%
residual activity [29]: 96.1%
residual activity [30]: 101%
residual activity [41]: 97.2%
residual activity [31]: 97.9%
residual activity [32]: 100%
residual activity [33]: 92.2%
residual activity [34]: 99.4%
residual activity [42]: 98.2%
residual activity [35]: 96.4%

Compound: C[C@@H]1CCN(C(=O)CC#N)C[C@@H]1N(C)c1ncnc2[nH]ccc12
residual activity [1]: 98.4%
residual activity [2]: 104%
residual activity [3]: 96.9%
residual activity [4]: 113%
residual activity [36]: 102%
residual activity [5]: 112%
residual activity [6]: 102%
residual activity [7]: 95.4%
residual activity [8]: 101%
residual activity [9]: 89.8%
residual activity [10]: 90.3%
residual activity [12]: 106%
residual activity [13]: 94.1%
residual activity [37]: 78.7%
residual activity [38]: 98%
residual activity [14]: 98.2%
residual activity [15]: 102%
residual activity [16]: 98.8%
residual activity [17]: 101%
residual activity [18]: 98.1%
residual activity [19]: 94.8%
residual activity [21]: 87.9%
residual activity [39]: 116%
residual activity [22]: 97.8%
residual activity [23]: 98.6%
residual activity [24]: 89%
residual activity [40]: 92.4%
residual activity [25]: 92%
residual activity [26]: 108%
residual activity [27]: 89.7%
residual activity [28]: 104%
residual activity [29]: 93.6%
residual activity [30]: 54.9%
residual activity [41]: 94.1%
residual activity [31]: 100%
residual activity [32]: 105%
residual activity [33]: 88.6%
residual activity [34]: 102%
residual activity [42]: 95.3%
residual activity [35]: 103%
